Measurements: the supplement of paper PMC5412046
Where a name gives a salt, the structure may show the parent alone.

Legend:
SB.msgc-1 [1] = assay: area under the dose-response curve of % viability (trapezoidal, 11 doses) (% viability x log10 concentration); higher = less cytotoxic; conditions: SB.msgc-1 (sporadic gastric cancer)
Procedure, shortened: (§1)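 Viability, normalised to DMSO, is listed either at the highest concentration or as trapezoidal area under the curve. It was measured in patient-derived gastric cancer cells, hereditary or sporadic, exposed for 48 h to 11 threefold-diluted compound concentrations and then assayed with CellTiter-Glo luminescence.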

SB.mhdgc-1 [2] = assay: as above; conditions: SB.mhdgc-1 (hereditary c.1380delA CDH1 gastric cancer)
Procedure, shortened: as §1

SB.msgc-1 [3] = assay: viability at highest tested concentration (MAXR) relative to DMSO; higher = less cytotoxic; conditions: SB.msgc-1 (sporadic gastric cancer)
Procedure, shortened: as §1

SB.mhdgc-1 [4] = assay: as above; conditions: SB.mhdgc-1 (hereditary c.1380delA CDH1 gastric cancer)
Procedure, shortened: as §1

| SMILES | area under the dose-response curve (SB.msgc-1 [1]) | area under the dose-response curve (SB.mhdgc-1 [2]) | viability (SB.msgc-1 [3]) | viability (SB.mhdgc-1 [4]) |
| --- | --- | --- | --- | --- |
| COC[C@@H](NC(C)=O)C(=O)NCc1ccccc1 [Lacosamide] (top concentration 46.0829 µM) | 491 | 542 | 96.8% | 108% |
| O=C(CS(=O)Cc1ccco1)NC/C=C\COc1cc(CN2CCCCC2)ccn1 (stereo unspecified) [Lafutidine] (top concentration 46.0829 µM) | 304 | 537 | 33.7% | 68.6% |
| Nc1ccn([C@H]2CS[C@@H](CO)O2)c(=O)n1 [Lamivudine] (top concentration 92.1659 µM) | 516 | 458 | 104% | 73.8% |
| Nc1nnc(-c2cccc(Cl)c2Cl)c(N)n1 [Lamotrigine] (top concentration 46.0829 µM) | 350 | 527 | 3.33% | 3.72% |
| Cc1c(OCC(F)(F)F)ccnc1C[S+]([O-])c1nc2ccccc2[nH]1 (stereo unspecified) [Lansoprazole] (top concentration 46.0829 µM) | 456 | 536 | 71.5% | 104% |
| C[S+](=O)([O-])CCNCc1ccc(-c2ccc3ncnc(Nc4ccc(OCc5cccc(F)c5)c(Cl)c4)c3c2)o1 [Lapatinib] (top concentration 46.0829 µM) | 245 | 483 | 13.3% | 3.18% |
| CCN1C[C@]2(OC(=O)c3ccccc3NC(C)=O)CC[C@H](OC)[C@@]34[C@@H]2C[C@@H]([C@@H]13)[C@@]1(O)C[C@H](OC)[C@H]2C[C@@H]4[C@]1(O)[C@H]2OC [Lappaconitine] (top concentration 46.0829 µM) | 496 | 562 | 101% | 117% |
| CCN(C(=O)C/1=C(O)/C2=C(C=CC=C2Cl)N(C)C1=O)C3=CC=CC=C3 [Laquinimod] (top concentration 46.0829 µM) | 489 | 559 | 96.7% | 112% |
| C[S+](=O)([O-])c1cc(F)cc2c3c(n(Cc4ccc(Cl)cc4)c12)[C@@H](CC(=O)O)CC3 [Laropiprant] (top concentration 46.0829 µM) | 553 | 555 | 91.4% | 93.2% |
| Cc1ccc2c(c1)c1c(n2CCc2ccc(C)nc2)CCN(C)C1 [Latrepirdine hydrochloride] (top concentration 46.0829 µM) | 487 | 454 | 79.8% | 57.1% |
| Cc1oncc1C(=O)Nc1ccc(C(F)(F)F)cc1 [Leflunomide] (top concentration 46.0829 µM) | 485 | 495 | 79.3% | 87.4% |
| Nc1cccc2c1CN(C1CCC(=O)NC1=O)C2=O (stereo unspecified) [Lenalidomide] (top concentration 92.1659 µM) | 481 | 478 | 112% | 120% |
| COc1cc2nccc(Oc3ccc(NC(=O)NC4CC4)c(Cl)c3)c2cc1C(N)=O [Lenvatinib] (top concentration 46.0829 µM) | 474 | 399 | 48.1% | 3.75% |
| C[C@@]12O[C@@H](C[C@]1(O)CO)n1c3ccccc3c3c4c(c5c6ccccc6n2c5c31)CNC4=O [Lestaurtinib] (top concentration 46.0829 µM) | 428 | 388 | 31.1% | 37.8% |
| N#Cc1ccc(C(c2ccc(C#N)cc2)n2cncn2)cc1 [Letrozole] (top concentration 46.0829 µM) | 532 | 501 | 93% | 88.3% |
| CC[C@@H](C(N)=O)N1CCCC1=O [Levetiracetam] (top concentration 46.0829 µM) | 584 | 545 | 91.5% | 83.4% |
| N[C@@H](Cc1ccc(O)c(O)c1)C(=O)O [Levodopa] (top concentration 46.0829 µM) | 571 | 583 | 116% | 118% |
| C[C@H]1COC2=C3N1\C=C(C(O)=O)/C(=O)C3=CC(=C2N4CCN(C)CC4)F [Levofloxacin] (top concentration 46.0829 µM) | 530 | 528 | 105% | 129% |
| CC[C@]12CC[C@H]3[C@@H](CCC/4=C/C(=O)CC[C@H]34)[C@@H]1CC[C@@]2(O)C#C [Levonorgestrel] (top concentration 46.0829 µM) | 512 | 472 | 77.2% | 98.5% |
| C[C@@H]\1CC(=O)N\N=C1C2=CC=C(NN=C(C#N)C#N)C=C2 [Levosimendan] (top concentration 46.0829 µM) | 294 | 476 | 1.23% | 3% |
| CCN1CCCC1CNC(=O)c1cc([S+](N)(=O)[O-])ccc1OC (stereo unspecified) [Levosulpiride] (top concentration 46.0829 µM) | 538 | 581 | 116% | 140% |
| CCC[C@H](Nc1nc(-c2ccc(NC(=O)NCC)c(OC)c2)ncc1C)c1cccnc1 [Lexibulin hydrochloride] (top concentration 46.0829 µM) | 289 | 257 | 33.9% | 39.8% |
| CC1(C)Cc2c(-c3ccccc3)c(-c3ccc(Cl)cc3)c(CC(=O)O)n2C1 [Licofelone] (top concentration 46.0829 µM) | 496 | 533 | 62.5% | 91.4% |
| OCc1ccc(-c2nn(Cc3ccccc3)c3ccccc23)o1 [Lificiguat] (top concentration 46.0829 µM) | 548 | 516 | 84% | 80.3% |
